Measurements: US7652003B2, “Macrocyclic β-secretase inhibitors” (Schering-Plough Corporation, priority 2004, dated 2010)
Like-named read-outs stand apart in the source and are kept apart here.

Biological target: T1, sproBACE1 (soluble human BACE1) (Homo sapiens, UniProt P56817)
T1 construct: sBACE1, corresponding to amino acids 1-454; made in house; host or cells: Sf9 insect cells (baculovirus); purified from culture supernatant
Experiment: Peptide hydrolysis assay (HTRF, EuK-biotin labeled APPsw substrate)
Format: biochemical
Conditions: 7 nM sproBACE1, pH 5.0, 3 hr at 30° C.
From the text: A predicted soluble form of human BACE1 (sBACE1, corresponding to amino acids 1-454) was generated from the full length BACE1 cDNA (full length human BACE1 cDNA in pcDNA4/mycHisA construct; University of Toronto) by PCR using the advantage-GC cDNA PCR kit (Clontech, Palo Alto, Calif.). A HindIII/Pmel fragment from pcDNA4-sBACE1 myc/His was blunt ended using Klenow and subcloned into the Stu I site of pFASTBACI(A) (Invitrogen). A sBACE1 mycHis recombinant bacmid was generated by transposition in DH10Bac cells(GIBCO/BRL). Subsequently, the sBACE1 mycHis bacmid construct was transfected into sf9 cells using CellFectin (Invitrogen, San Diego, Calif.) in order to generate recombinant baculovirus. Sf9 cells were grown in SF 900-II medium (Invitrogen) supplemented with 3% heat inactivated FBS and 0.5× penicillin/streptomycin solution (Invitrogen). Five milliliters of high titer plaque purified sBACEmyc/His virus was used to infect 1 L of logarithmically growing sf9 cells for 72 hours. Intact cells were pelleted by centrifugation at 3000×g for 15 minutes. The supernatant, containing secreted sBACE1, was collected and diluted 50% v/v with 100 mM HEPES, pH 8.0. The diluted medium was loaded onto a Q-sepharose column. The Q-sepharose column was washed with Buffer A (20 mM HEPES, pH 8.0, 50 mM NaCl).
Proteins, were eluted from the Q-sepharose column with Buffer B (20 mM HEPES, pH 8.0, 500 mM NaCl). The protein peaks from the Q-sepharose column were pooled and loaded onto a Ni-NTA agarose column. The Ni-NTA column was then washed with Buffer C (20 mM HEPES, pH 8.0, 500 mM NaCl). Bound proteins were then eluted with Buffer D (Buffer C+250 mM imidazole). Peak protein fractions as determined by the Bradford Assay (Biorad, Calif.) were concentrated using a Centricon 30 concentrator (Millipore). sBACE1 purity was estimated to be ˜90% as assessed by SDS-PAGE and Commassie Blue staining.
The inhibitor, 25 nM EuK-biotin labeled APPsw substrate (EuK-KTEEISEVNLDAEFRHDKC-biotin; CIS-Bio International, France), 5 μM unlabeled APPsw peptide (KTEEISEVNLDAEFRHDK; American Peptide Company, Sunnyvale, Calif.), 7 nM sproBACE1, 20 mM PIPES pH 5.0, 0.1% Brij-35 (protein grade, Calbiochem, San Diego, Calif.), and 10% glycerol were preincubated for 30 min at 30° C. […] HTRF measurements were made on a Packard Discovery® HTRF plate reader using 337 nm laser light to excite the sample followed by a 50 μs delay and simultaneous measurements of both 620 nm and 665 nm emissions for 400 μs.
IC50 determinations for inhibitors, (I), were determined by measuring the percent change of the relative fluorescence at 665 nm divided by the relative fluorescence at 620 nm, (665/620 ratio), in the presence of varying concentrations of I and a fixed concentration of enzyme and substrate. […]

[1] = read-out: Activity (IC50 classification)

T1 sequence (P56817 22-454): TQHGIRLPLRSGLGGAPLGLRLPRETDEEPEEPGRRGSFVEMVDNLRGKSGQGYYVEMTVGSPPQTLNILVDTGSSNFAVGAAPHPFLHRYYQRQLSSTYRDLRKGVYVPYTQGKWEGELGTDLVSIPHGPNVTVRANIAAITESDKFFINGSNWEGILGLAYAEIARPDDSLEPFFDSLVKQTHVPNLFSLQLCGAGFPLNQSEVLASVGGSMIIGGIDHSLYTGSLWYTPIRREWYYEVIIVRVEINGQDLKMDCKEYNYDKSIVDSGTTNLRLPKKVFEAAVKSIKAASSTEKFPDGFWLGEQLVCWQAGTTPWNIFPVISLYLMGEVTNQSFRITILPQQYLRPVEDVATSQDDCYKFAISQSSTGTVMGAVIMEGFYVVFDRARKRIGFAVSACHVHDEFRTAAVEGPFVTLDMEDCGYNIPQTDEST

| IC50 [1] [nM] | SMILES | further results |
| --- | --- | --- |
| 2 to 1000 | O=C1N[C@H]([C@H](O)[C@@H]2NCCN(Cc3ccccc3)C2=O)Cc2cc(F)cc(c2)OCCCCN2CC1CC2=O (stereo partly shown) [drawing 72] | – |
| – | CCCN1CCCCOc2cc(F)cc(c2)CC(C(O)C2NCCN(Cc3ccccc3)C2=O)NC(=O)c2cccc(c2)C1=O (stereo not shown) | Activity (IC50 classification): A or B |
| – | O=C1N[C@H]([C@H](O)[C@@H]2NCCN(Cc3ccccc3)C2=O)Cc2cc(F)cc(c2)OCCCCN2CC1CC2=O (stereo partly shown) [drawing 69] | IC50 (read-out: IC50): 4 nM |
| 1000 to 10000 | CCCN1CCCCOc2ccc(cc2)C[C@@H](C(O)C2NCCN(Cc3ccccc3)C2=O)NC(=O)c2cccc(c2)C1=O (stereo partly shown) | – |
